In PMC7224213, “A novel peroxidase from Ziziphus jujuba fruit: purification, thermodynamics and biochemical characterization properties” (Scientific Reports, 2020):

Tested on: T1, Z. jujuba peroxidase (POD IIA)
T1 construct: 56 kDa by gel filtration and SDS-PAGE (single band); EC 1.11.1.7
Experiment: absorbance at […] nm, Lineweaver-Burk
Assay type: biochemical, Ziziphus jujuba
Details: co-substrate H2O2; 0.05 M sodium acetate pH 5.5; 50 °C; guaiacol 20-90 mM; text prints 23.5 with the units of Km and Vmax interchanged (unit/ml)

Km: 23.5 mM
SMILES: COc1ccccc1O [guaiacol]
